Read-outs that look alike come from different tables or passages of the source. Starred links: 1 amine or outer side, 2 acyl side, 3 side chain; linkers in the order of their positions; H or OH if unused. Positions of bridges follow the written chain, without caps; N, C: chain ends. Non-standard residues stand in square brackets, D forms with d. Residues, ends and D or L forms follow the SMILES beside them. ξ: configuration not given here. *: point of attachment. X1 = O=C(CCOCC(COCCC(=O)NCCOCCOCCOCCOCC1OCC(Nc2cncc(C(F)(F)F)n2)C(O)C1O)NCC(=O)*)NCCOCCOCCOCCOCC1OCC(Nc2cncc(C(F)(F)F)n2)C(O)C1O; ξPro(4ξ-NH2) = O=C(C1CC(N[*:3])CN1[*:1])[*:2] A value given as a limit tells only on which side of the number the result lay.

Our source for the EC50 and Kd values is patent publication US20260083851A1 (AVILAR THERAPEUTICS, INC., priority 2022, published 2026).

For experiment [1], the target named is T1, ASGPR receptor on HepG2 cells (ternary complex with AF488-labeled antibody) (Homo sapiens, UniProt P07306).
T1 construct: host or cells: HepG2
T1 sequence (P07306 1-291): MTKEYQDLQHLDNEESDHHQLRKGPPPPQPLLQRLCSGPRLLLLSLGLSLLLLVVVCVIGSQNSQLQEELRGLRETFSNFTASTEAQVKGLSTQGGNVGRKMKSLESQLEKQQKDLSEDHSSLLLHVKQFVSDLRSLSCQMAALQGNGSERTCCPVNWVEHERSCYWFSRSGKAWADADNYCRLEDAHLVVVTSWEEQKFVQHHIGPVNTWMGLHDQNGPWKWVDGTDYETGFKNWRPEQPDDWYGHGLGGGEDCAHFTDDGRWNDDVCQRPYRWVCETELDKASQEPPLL
T1 sequence (P07307 1-311 partner): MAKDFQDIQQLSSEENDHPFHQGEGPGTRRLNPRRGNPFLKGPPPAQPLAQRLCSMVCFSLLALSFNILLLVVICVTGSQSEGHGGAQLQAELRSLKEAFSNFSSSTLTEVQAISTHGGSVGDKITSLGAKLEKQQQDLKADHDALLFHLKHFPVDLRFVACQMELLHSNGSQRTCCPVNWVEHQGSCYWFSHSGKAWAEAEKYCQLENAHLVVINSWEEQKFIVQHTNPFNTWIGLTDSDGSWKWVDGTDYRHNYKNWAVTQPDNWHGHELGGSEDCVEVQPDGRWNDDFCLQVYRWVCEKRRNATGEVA
As to the kind of experiment: Ternary complex formation assay (flow cytometry, cell-associated AF488 fluorescence). The experiment is classed as cell-based. Here is the method:
Human IgG (Sigma-Aldrich, 14506) was covalently labeled with Alexa Fluor 488 using the Alexa Fluor™ 488 Protein Labeling Kit (Thermo Fisher, A10235) following the manufacturer's instructions. HepG2 cells (ATCC, HB-8065) were cultured to about 70% confluence and harvested by trypsinization. Single cell suspensions of HepG2 cells were plated in 96 well plates at 1×10^5 cells/well in cell culture media (DMEM supplemented with 10% FBS) and placed at 4° C. For studies using human IgG, cells were incubated with 100 nM AF488-labeled anti-human IgG and serial dilutions of IgG-based degrader for 1 hour at 4° C. For studies using DNP, cells were incubated with 100 nM AF488-labeled polyclonal rabbit anti-dinitrophenyl (DNP) antibodies (ThermoFisher) and serial dilutions of DNP-based degrader for 1 hour at 4° C. After washing once with ice-cold PBS containing 0.1% BSA and 0.1% sodium azide, cells were resuspended in 150 uL PBS+0.1% BSA and cell-associated AF488 fluorescence was measured by flow cytometry using the iQue® Screener PLUS Flow Cytometer (IntelliCyt). […]
(In general: A flow cytometer gives signals particle by particle.)

The target of another experiment is T2, ASGPR (Homo sapiens, UniProt P07306).
T2 construct: biotin (biotinylated)
T2 sequence (P07306 1-291): T1 sequence (P07306 1-291)
Put plainly: ASGPR SPR binding.

For the next experiment, the target named is IgG. Put plainly: IgG SPR binding. The note with it: second table, read-out: IgG KD.
[2] abbreviates: read-out: TCF EC50, 100 nM AF488-labeled antibody, 1 hour at 4° C., the 25th table, class symbols.
Where [3] appears, read: read-out: ASGPR KD, second table.
Setting [4] is: second table, read-out: ASGPR KD.

One may read the EC50 as the concentration that produces a half-maximal response. By Kd is commonly meant the concentration at which binding is half-saturated. As for `CC(C)CC1NC(=O)C(Cc2cnc[nH]2)NC(=O)C(Cc2c[nH]c3ccccc23)NC(=O)C(C)NC(=O)C2CSSCC(NC(=O)C(Cc3c[nH]c4ccccc34)NC(=O)C(C(C)C)NC(=O)C(CC(C)C)NC(=O)C(CCC(=O)O)NC(=O)CNC1=O)C(=O)NC(C(C)O)C(=O)N1CCCC1C(=O)N1CC(NC(=O)CNC(COCCC(=O)NCC3OCC(Nc4cncc(C(F)(F)F)n4)C(O)C3O)COCCC(=O)NCC3OCC(Nc4cncc(C(F)(F)F)n4)C(O)C3O)CC1C(=O)NC(CC(=O)O)C(=O)N2` (stereo not drawn) [compound 41], the 50% effective concentration (EC50) in experiment [1] (setting [2]) is below 100 nM. The Kd at ASGPR (setting [3]) and at IgG was below 100 nM in each case.
In the case of `CC(C)CC1NC(=O)C(Cc2cnc[nH]2)NC(=O)C(Cc2c[nH]c3ccccc23)NC(=O)C(C)NC(=O)C2CSSCC(NC(=O)C(Cc3c[nH]c4ccccc34)NC(=O)C(C(C)C)NC(=O)C(CC(C)C)NC(=O)C(CCC(=O)O)NC(=O)CNC1=O)C(=O)NC(C(C)O)C(=O)N1CCCC1C(=O)N1CC(NC(=O)c3ccc(N4CCC(CN5CCN(CC6OCC(Nc7cncc(C(F)(F)F)n7)C(O)C6O)CC5)CC4)nn3)CC1C(=O)NC(CC(=O)O)C(=O)N2` (stereo not drawn) [compound 42], the EC50 in experiment [1] (setting [2]) is below 100 nM. For the same compound, the equilibrium dissociation constant (Kd) on ASGPR (setting [4]) and on IgG was below 100 nM each time.
Take `CC(C)CC1NC(=O)C(Cc2cnc[nH]2)NC(=O)C(Cc2c[nH]c3ccccc23)NC(=O)C(C)NC(=O)C2CSSCC(NC(=O)C(Cc3c[nH]c4ccccc34)NC(=O)C(C(C)C)NC(=O)C(CC(C)C)NC(=O)C(CCC(=O)O)NC(=O)CNC1=O)C(=O)NC(C(C)O)C(=O)N1CCCC1C(=O)N1CC(NC(=O)c3ccc(C(=O)NCC4OCC(Nc5cncc(C(F)(F)F)n5)C(O)C4O)cc3)CC1C(=O)NC(CC(=O)O)C(=O)N2` (stereo not drawn) [compound 43]: the EC50 in experiment [1] (setting [2]) was above 1000 nM. Moreover, the Kd at ASGPR (setting [4]) and on IgG was below 100 nM in each case.
With `CC(C)CC1NC(=O)C(Cc2cnc[nH]2)NC(=O)C(Cc2c[nH]c3ccccc23)NC(=O)C(C)NC(=O)C2CSSCC(NC(=O)C(Cc3c[nH]c4ccccc34)NC(=O)C(C(C)C)NC(=O)C(CC(C)C)NC(=O)C(CCC(=O)O)NC(=O)CNC1=O)C(=O)NC(C(C)O)C(=O)N1CCCC1C(=O)N1CC(NC(=O)c3ccc(N4CCC(CN5CCN(CC6OCC(Nc7cncc(C(F)(F)F)n7)C(O)C6O)CC5)CC4)cc3)CC1C(=O)NC(CC(=O)O)C(=O)N2` (stereo not drawn) [compound 44], in experiment [1] (setting [2]), the EC50 was below 100 nM. Moreover, the Kd at ASGPR (setting [4]) and on IgG was below 100 nM in each case.
`CC(C)CC1NC(=O)C(Cc2cnc[nH]2)NC(=O)C(Cc2c[nH]c3ccccc23)NC(=O)C(C)NC(=O)C2CSSCC(NC(=O)C(Cc3c[nH]c4ccccc34)NC(=O)C(C(C)C)NC(=O)C(CC(C)C)NC(=O)C(CCC(=O)O)NC(=O)CNC1=O)C(=O)NC(C(C)O)C(=O)N1CCCC1C(=O)N1CC(NC(=O)C3CCC(C(=O)NCC4OCC(Nc5cncc(C(F)(F)F)n5)C(O)C4O)CC3)CC1C(=O)NC(CC(=O)O)C(=O)N2` (stereo not drawn) [compound 45]: the half-maximal effective concentration (EC50) in experiment [1] (setting [2]) was above 1000 nM. Further, the results for the dissociation constant Kd on ASGPR (setting [4]) and at IgG were 100 to 500 nM and below 100 nM, respectively.
Regarding `CC(C)CC1NC(=O)C(Cc2cnc[nH]2)NC(=O)C(Cc2c[nH]c3ccccc23)NC(=O)C(C)NC(=O)C2CSSCC(NC(=O)C(Cc3c[nH]c4ccccc34)NC(=O)C(C(C)C)NC(=O)C(CC(C)C)NC(=O)C(CCC(=O)O)NC(=O)CNC1=O)C(=O)NC(C(C)O)C(=O)N1CCCC1C(=O)N1CC(NC(=O)CNC(COCCC(=O)NCCOCCOCCOCCOCC3OCC(Nc4cncc(C(F)(F)F)n4)C(O)C3O)COCCC(=O)NCCOCCOCCOCCOCC3OCC(Nc4cncc(C(F)(F)F)n4)C(O)C3O)CC1C(=O)NC(CC(=O)O)C(=O)N2` (stereo not drawn) [compound 46], the EC50 in experiment [1] (setting [2]) was below 100 nM. Further, the Kd at ASGPR (setting [3]) and at IgG was below 100 nM each time.
As to `CC(C)CC1NC(=O)C(Cc2cnc[nH]2)NC(=O)C(Cc2c[nH]c3ccccc23)NC(=O)C(C)NC(=O)C2CSSCC(NC(=O)C(Cc3c[nH]c4ccccc34)NC(=O)C(C(C)C)NC(=O)C(CC(C)C)NC(=O)C(CCC(=O)O)NC(=O)CNC1=O)C(=O)NC(C(C)O)C(=O)N1CCCC1C(=O)N1CC(NC(=O)c3ccc(-c4ccc(C(=O)NCC5OCC(Nc6cncc(C(F)(F)F)n6)C(O)C5O)cc4)cc3)CC1C(=O)NC(CC(=O)O)C(=O)N2` (stereo not drawn) [compound 49], the concentration for a half-maximal effect (EC50) in experiment [1] (read-out: TCF EC50, 100 nM AF488-labeled antibody, 1 hour at 4° C., the 25th table, numeric bounds, nM from footnote) is above 686 nM. The Kd at ASGPR (setting [4]) and at IgG was below 100 nM throughout.
Regarding `CC(C)CC1NC(=O)C(Cc2cnc[nH]2)NC(=O)C(Cc2c[nH]c3ccccc23)NC(=O)C(C)NC(=O)C2CSSCC(NC(=O)C(Cc3c[nH]c4ccccc34)NC(=O)C(C(C)C)NC(=O)C(CC(C)C)NC(=O)C(CCC(=O)O)NC(=O)CNC1=O)C(=O)NC(C(C)O)C(=O)N1CCCC1C(=O)N1CC(NC(=O)COCCOCC(=O)NCC3OCC(Nc4cncc(C(F)(F)F)n4)C(O)C3O)CC1C(=O)NC(CC(=O)O)C(=O)N2` (stereo not drawn) [compound 50], in experiment [1] (setting [2]), the concentration for a half-maximal effect (EC50) was below 100 nM. The Kd at ASGPR (setting [4]) and at IgG was below 100 nM in each case.
For the compound `CC(C)CC1NC(=O)C(Cc2cnc[nH]2)NC(=O)C(Cc2c[nH]c3ccccc23)NC(=O)C(C)NC(=O)C2CSSCC(NC(=O)C(Cc3c[nH]c4ccccc34)NC(=O)C(C(C)C)NC(=O)C(CC(C)C)NC(=O)C(CCC(=O)N(C)C)NC(=O)CNC1=O)C(=O)NC(C(C)O)C(=O)N1CCCC1C(=O)N1CC(NC(=O)CNC(COCCC(=O)NCCOCCOCCOCCOCC3OCC(Nc4cncc(C(F)(F)F)n4)C(O)C3O)COCCC(=O)NCCOCCOCCOCCOCC3OCC(Nc4cncc(C(F)(F)F)n4)C(O)C3O)CC1C(=O)NC(CC(=O)O)C(=O)N2` (stereo not drawn) [compound 53], in experiment [1] (setting [2]), the EC50 is below 100 nM. The Kd at ASGPR (setting [3]) and at IgG was below 100 nM each time.
For `CC(C)CC1NC(=O)C(C)NC(=O)CNC(=O)C(CC(C)C)NC(=O)C(Cc2cnc[nH]2)NC(=O)C(Cc2c[nH]c3ccccc23)NC(=O)C(C)NC(=O)C2CSSCC(NC(=O)C(Cc3c[nH]c4ccccc34)NC(=O)C(C(C)C)NC1=O)C(=O)NC(C(C)O)C(=O)N1CCCC1C(=O)N1CC(NC(=O)CNC(COCCC(=O)NCCOCCOCCOCCOCC3OCC(Nc4cncc(C(F)(F)F)n4)C(O)C3O)COCCC(=O)NCCOCCOCCOCCOCC3OCC(Nc4cncc(C(F)(F)F)n4)C(O)C3O)CC1C(=O)NC(C)C(=O)N2` (stereo not drawn) [compound 71] (cyclo(GALVWCTP[ξPro(4ξ-NH2)](X1)ACAWHL); disulfide 6-11; configuration not given here), the EC50 in experiment [1] (setting [2]) is below 100 nM. Further, the Kd on ASGPR (setting [3]) and on IgG was below 100 nM in each case.
`CC(C)CC1NC(=O)C(Cc2cnc[nH]2)NC(=O)C(Cc2c[nH]c3ccccc23)NC(=O)C(C)NC(=O)C2CSSCC(NC(=O)C(Cc3c[nH]c4ccccc34)NC(=O)C(C(C)C)NC(=O)C(CC(C)C)NC(=O)C(CCC(=O)N(C)C)NC(=O)CNC1=O)C(=O)NC(C(C)O)C(=O)N1CCCC1C(=O)N1CC(NC(=O)CNC(COCCC(=O)NCCOCCOCCOCCOCC3OCC(Nc4cncc(C(F)(F)F)n4)C(O)C3O)COCCC(=O)NCCOCCOCCOCCOCC3OCC(Nc4cncc(C(F)(F)F)n4)C(O)C3O)CC1C(=O)NC(C)C(=O)N2` (stereo not drawn) [compound 72] (cyclo(GE(NMe2)LVWCTP[ξPro(4ξ-NH2)](X1)ACAWHL); disulfide 6-11; configuration not given here): in experiment [1] (setting [2]), the EC50 is below 100 nM. For the same compound, the Kd at ASGPR (setting [3]) and at IgG was below 100 nM in each case.
Take `CC(C)CC1NC(=O)C(Cc2cnc[nH]2)NC(=O)C(Cc2c[nH]c3ccccc23)NC(=O)C(C)NC(=O)C2CSSCC(NC(=O)C(Cc3c[nH]c4ccccc34)NC(=O)C(C(C)C)NC(=O)C(CC(C)C)NC(=O)C(CCC(=O)N(C)C)NC(=O)CNC1=O)C(=O)NC(C(C)O)C(=O)N1CCCC1C(=O)N1CC(NC(=O)CNC(COCCC(=O)NCCOCCOCCOCCOCC3OCC(Nc4cncc(C(F)(F)F)n4)C(O)C3O)COCCC(=O)NCCOCCOCCOCCOCC3OCC(Nc4cncc(C(F)(F)F)n4)C(O)C3O)CC1C(=O)NC(CC(N)=O)C(=O)N2` (stereo not drawn) [compound 73] (cyclo(GE(NMe2)LVWCTP[ξPro(4ξ-NH2)](X1)NCAWHL); disulfide 6-11; configuration not given here): the EC50 in experiment [1] (setting [2]) was below 100 nM. Also, the Kd on ASGPR (setting [3]) and at IgG was below 100 nM in each case.
